This passage reports Kd results from article PMC10147607, “MSI2 promotes translation of multiple IRES-containing oncogenes and virus to induce self-renewal of tumor initiating stem-like cells” (Cell Death Discovery, 2023).

pKd: −log10 of the molar value.

Test [1] has as its target T1, MSI2 (full-length, wild type; recombinant MSI2) (Homo sapiens, UniProt Q96DH6).
T1 construct: full-length recombinant MSI2, purified; His6-tagged in EMSA (MSI2-His6)
Briefly: microscale thermophoresis (MST). It counts as binding. (MST reads how a fluorescent partner responds to local heating, with and without ligand.)

Test [2] addresses T1, MSI2 (full-length, wild type; recombinant MSI2). Briefly: ligand binding curve, probably MST (method for gossypol not stated explicitly).

T1 sequence (Q96DH6 whole entry): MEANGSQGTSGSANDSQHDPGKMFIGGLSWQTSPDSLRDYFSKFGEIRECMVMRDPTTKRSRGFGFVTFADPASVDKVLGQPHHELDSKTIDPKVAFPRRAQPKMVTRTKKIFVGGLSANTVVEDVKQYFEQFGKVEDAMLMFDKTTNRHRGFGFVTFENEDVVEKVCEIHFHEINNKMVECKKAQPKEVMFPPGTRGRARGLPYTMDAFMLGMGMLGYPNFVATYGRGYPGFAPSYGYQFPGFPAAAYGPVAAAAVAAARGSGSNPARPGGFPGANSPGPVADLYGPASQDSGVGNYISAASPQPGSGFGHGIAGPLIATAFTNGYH

As to `CC(C)(Sc1ccc(CCN(CCCCC2CCCCC2)C(=O)NC2CCCCC2)cc1)C(=O)O` [GW7647], the negative logarithm of the Kd (pKd) in test [1] is 5.92.
As to `Cc1cc2c(C(C)C)c(O)c(O)c(C=O)c2c(O)c1-c1c(C)cc2c(C(C)C)c(O)c(O)c(C=O)c2c1O` [Gossypol], the pKd in test [2] is 4.46.

The term pKd denotes the Kd on a negative log10 scale, so that one unit is a factor of ten.
